Assay [1] deals with IFNa Kit225 Reporter (Kit225 T cells with STAT-dependent luciferase reporter). In words: Kit225 T cell assay, IFNα stimulated STAT-dependent luciferase reporter. The note with it: 200 U/mL human recombinant IFNα, 5-6 hours. The format is cell-based. The procedure:
(§1) Kit225 T cells with a stably-integrated STAT-dependent luciferase reporter were plated in RPMI (GIBCO) containing 10% heat-inactivated FBS (GIBCO) and 100 U/mL PenStrep (GIBCO). The cells were then stimulated with either 20 ng/mL human recombinant IL-23 or 200 U/mL human recombinant IFNα (PBL InterferonSource) for 5-6 hours. Luciferase expression was measured using the STEADY-GLO® Luciferase Assay System (PROMEGA®) according to the manufacturer's instructions. Inhibition data were calculated by comparison to no inhibitor control wells for 0% inhibition and non-stimulated control wells for 100% inhibition. Dose response curves were generated to determine the concentration required to inhibit 50% of cellular response (IC50) as derived by non-linear regression analysis.
Background: In a reporter assay the amount or activity of a reporter protein is the signal.

The test system of assay [2] is IL-23 Kit225 Reporter (Kit225 T cells with STAT-dependent luciferase reporter). In words: Kit225 T cell assay, IL-23 stimulated STAT-dependent luciferase reporter. The format is cell-based. The following applies: 20 ng/mL human recombinant IL-23, 5-6 hours. How it is done: as §1
Assay [3] concerns the target T1, human Tyk2 (amino acids 575-869, His-tagged) (Homo sapiens, UniProt P29597).
T1 construct: made in house
In words: Probe displacement assay (scintillation proximity, radiolabeled probe). The format is binding. The following applies: 2.5 nM Tyk2 (575-869), 40 nM tritiated probe, 30 minutes at room temperature. How it is done:
The probe displacement assay is conducted as follows: In a […], test compounds along with recombinantly expressed His-tagged protein corresponding to amino acids 575-869 of human Tyk2 (sequence shown below) at 2.5 nM, 40 nM ((R)—N-(1-(3-(8-methyl-5-(methylamino)-8H-imidazo[4,5-d]thiazolo[5,4-b]pyridin-2-yl)phenyl)ethyl)-2-([^3H]methylsulfonyl)benzamide) (preparation described below) and 80 μg/mL Copper His-Tag scintillation proximity assay beads (Perkin Elmer, Catalog #RPNQ0095) in 50 mM HEPES, pH 7.5, containing 100 μg/mL bovine serum albumin and 5% DMSO were incubated for 30 minutes at room temperature. The amount of radiolabeled probe (preparation described below) bound to Tyk2 was then quantified by scintillation counting, and the inhibition by the test compound calculated by comparison to wells either with no inhibitor (0% inhibition) or without Tyk2 (100% inhibition). The IC50 value is defined as the concentration of test compound required to inhibit radiolabeled probe binding by 50%.
Protein Sequence of recombinant Hig-tagged Tyk2 (575-869):
The preparation of radiolabeled probe, (R)—N-(1-(3-(8-methyl-5-(methylamino)-8H-imidazo[4,5-d]thiazolo[5,4-b]pyridin-2-yl)phenyl)ethyl)-2-([^3H]methylsulfonyl)benzamide, was performed as described below:
2-([^3H]methylsulfonyl)benzoic acid: 2-Mercaptobenzoic acid (2.3 mg, 0.015 mmol) and cesium carbonate (2 mg, 0.006 mmol) were added to a 5 mL round-bottomed flask. The flask was attached to a ported glass vacuum line and anhydrous DMF (0.5 mL) was introduced with magnetic stirring. An ampoule of tritiated methyl iodide (200 mCi, Perkin-Elmer lot 3643419) was added to the reaction flask and stirring was maintained at rt for 3 h. In-process HPLC analysis with radiometric detection indicated 80% conversion to the desired product by comparison with authentic standard. Without purification, the crude product was reacted with mCPBA (10 mg, 0.058 mmol) pre-dissolved in CH2Cl2 (1 mL) at room temperature with stirring. The reaction was stirred for 7 h and additional mCPBA (10 mg, 0.058 mmol) was added. The reaction was stirred for approximately 24 h and HPLC analysis indicated 35-40% conversion to the desired […] product. The crude product was purified by semi-preparative HPLC (Luna Sum C18 (10×250 cm); A: MeOH/H2O=15/85 (0.1% TFA); B: MeOH; 270 nm; 0-8 min 0% B 1 ml/min; 8-10 min 0% B 1-3 ml/min; 10-55 min 0% B 3 ml/min; 55-65 min 0-10% B 3 ml/min; 65-75 min 10-50% B 3 ml/min; 75-80 min 50-100% B 3 ml/min) to give 81 mCi (40% radiochemical yield) of 2-([^3H]methylsulfonyl)benzoic acid product identified by its HPLC co-elution with an authentic standard. The radiochemical purity was measured by HPLC to be 99% (Luna 5u C18 (4.6×150 cm); A: H2O (0.1% TFA); B: MeOH; 1.2 ml/min; 270 nm; 0-10 min 20% B; 10-15 min 20-100% B; 15-25 min 100% B. The product was dissolved in anhydrous acetonitrile to give a final solution activity of 5.8 mCi/mL. (R)—N-(1-(3-(8-methyl-5-(methylamino)-8H-imidazo[4,5-d]thiazolo[5,4-b]pyridin-2-yl)phenyl)ethyl)-2-([^3H]methylsulfonyl)benzamide: A solution of 2-([^3H]methylsulfonyl)benzoic acid (23.2 mCi) in acetonitrile was added to a 5 mL round-bottomed flask which was then attached to a vacuum line and carefully evaporated to dryness. (R)-2-(3-(1-aminoethyl)phenyl)-N,8-dimethyl-8H-imidazo[4,5-d]thiazolo[5,4-b]pyridin-5-amine (prepared as described in WO 2004/106293 and Dyckman et al., Bioorganic and Medicinal Chemistry Letters, 383-386 (2011)) (1.1 mg, 0.0033 mmol) and PyBOP (2 mg, 0.0053 mmol) dissolved in anhydrous DMF (1.5 mL) were added to the flask followed by N,N-diisopropylethylamine (0.010 mL). The resulting clear solution was stirred at room temperature for 18 h. […]

We go through 22 compounds from US11299494B2, “Substituted imidazo[1,2-b]pyridazines as interleukin-23 and interferon-α modulators” (BRISTOL-MYERS SQUIBB COMPANY, priority 2016, dated 2022).

Each structure is given as a SMILES string.

T1 sequence (P29597 with tags, fused parts or gaps): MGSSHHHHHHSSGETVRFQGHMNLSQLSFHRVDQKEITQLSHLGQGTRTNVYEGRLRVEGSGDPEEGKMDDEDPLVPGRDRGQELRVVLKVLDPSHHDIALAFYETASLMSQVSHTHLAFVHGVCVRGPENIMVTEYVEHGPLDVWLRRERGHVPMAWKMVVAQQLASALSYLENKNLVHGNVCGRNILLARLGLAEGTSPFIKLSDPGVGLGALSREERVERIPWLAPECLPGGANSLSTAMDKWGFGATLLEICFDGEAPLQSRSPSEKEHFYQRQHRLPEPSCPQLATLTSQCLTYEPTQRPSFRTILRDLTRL

As a reminder, the IC50 is the concentration that inhibits the measured activity by half. The EC50 is the concentration needed to bring the measured effect to its halfway point. Turning to `CNc1cc(-n2nc(C(=O)N(C)C)c3ccccc32)nn2c(C(=O)NC3CC3)cnc12` [Example 19], the half-inhibitory concentration (IC50) was 474 nM in assay [1] and 511 nM in assay [2]. Further, the half-maximal effective concentration (EC50) in assay [3] came out at 61 nM.
Consider `CNc1cc(-n2cc(C(=O)NC(C)C)c3ccccc32)nn2c(C(=O)NC3CC3)cnc12` [Example 9], for which the results for the IC50 in assay [1] and in assay [2] were 1460 nM and 3090 nM, respectively. The same compound yielded a concentration giving a half-maximal response (EC50) in assay [3] of 40 nM.
For `CNc1cc(-n2cc(C(=O)NCC(C)C)c3ccccc32)nn2c(C(=O)NC3CC3)cnc12` [Example 7], in that order: 924 nM, 1640 nM and 35 nM.
In the same order, the values of `CNc1cc(-n2cnc3ccccc32)nn2c(C(=O)NC3CC3)cnc12` [Example 14] are 1750 nM, 3640 nM and 29 nM.
For `CNc1cc(-n2ccc3ccccc32)nn2c(C(=O)NC3CC3)cnc12` [Example 21], in that order: 433 nM, 661 nM and 13 nM.
As for `CCNC(=O)c1cn(-c2cc(NC)c3ncc(C(=O)NC4CC4)n3n2)c2ccccc12` [Example 2], the IC50 in assay [1] amounted to 1120 nM; in assay [2] it was 813 nM. For the same compound, the 50% effective concentration (EC50) in assay [3] is 5 nM.
On to `CNc1cc(-n2cc(C(=O)N3CCOCC3)c3ccccc32)nn2c(C(=O)NC3CCC3)cnc12` [Example 12], for which the results for the half-inhibitory concentration (IC50) in assay [1] and in assay [2] were 1290 nM and 1740 nM, respectively. The same compound registered an EC50 in assay [3] of 18 nM.
In the same order, the values of `CNc1cc(-n2cc(C(=O)NCC(C)(C)O)c3cccnc32)nn2c(C(=O)NC3CC3)cnc12` [Example 13] are 1250 nM, 294 nM and 25 nM.
Consider `CNc1cc(-n2cc(C(=O)O)c3ccccc32)nn2c(C(=O)NC3CCC3)cnc12` [Example 22], for which the 50% inhibitory concentration (IC50) in assay [1] and in assay [2] was 12500 nM each time. Further, in assay [3], it took 48 nM to reach a half-maximal effect (EC50).
Take `CNc1cc(-n2ccc3c(OC)cccc32)nn2c(C(=O)NC3CC3)cnc12` [Example 15]: the half-inhibitory concentration (IC50) in assay [1] stood at 2320 nM; in assay [2], 649 nM. This compound also came in with an EC50 in assay [3] of 46 nM.
In the same order, the values of `CNc1cc(-n2cc(C(=O)NCCC(N)=O)c3ccccc32)nn2c(C(=O)NC3CC3)cnc12` [Example 6] are 9550 nM, 12500 nM and 31 nM.
For `CNc1cc(-n2cc(C(=O)Nc3cccnc3)c3ccccc32)nn2c(C(=O)NC3CC3)cnc12` [Example 4], in that order: 1230 nM, 1890 nM and 22 nM.
In the same order, the values of `CNc1cc(-n2ccc3ncccc32)nn2c(C(=O)NC3CC3)cnc12` [Example 16] are 1140 nM, 947 nM and 123 nM.
For the compound `CNc1cc(-n2cc(C(=O)NCC(C)(C)O)c3ccccc32)nn2c(C(=O)NC3CCC3)cnc12` [Example 10], the IC50 in assay [1] came out at 882 nM; in assay [2], 1100 nM. Moreover, in assay [3], the midpoint of the response, the EC50, lay at 6 nM.
`CNC(=O)c1nn(-c2cc(NC)c3ncc(C(=O)NC4CC4)n3n2)c2ccccc12` [Example 17, N-cyclopropyl-8-(methylamino)-6-(3-(methylcarbamoyl)-1H-indazol-1-yl)imidazo[1,2-b]pyridazine-3-carboxamide]: the IC50 in assay [1] stood at 270 nM; in assay [2], 355 nM. This compound displayed an EC50 in assay [3] of 16 nM.
As to `CNc1cc(-n2nc(C(=O)NCC(C)(C)O)c3ccccc32)nn2c(C(=O)NC3CC3)cnc12` [Example 20], the IC50 in assay [1] was 475 nM; in assay [2], 926 nM. For the same compound, it took 75 nM to reach a half-maximal effect in assay [3] (EC50).
Consider `CNc1cc(-n2cc(C(=O)NCCOC)c3ccccc32)nn2c(C(=O)NC3CC3)cnc12` [Example 8], for which the half-inhibitory concentration (IC50) in assay [1] was determined as 537 nM; in assay [2], 574 nM. For the same compound, it took 37 nM to reach a half-maximal effect in assay [3] (EC50).
For `CNc1cc(-n2cc(C(=O)N3CCC(O)CC3)c3ccccc32)nn2c(C(=O)NC3CC3)cnc12` [Example 3], in that order: 4790 nM, 12500 nM and 19 nM.
For `CNc1cc(-n2nc(C(=O)N3CCOCC3)c3ccccc32)nn2c(C(=O)NC3CC3)cnc12` [Example 18], in that order: 511 nM, 700 nM and 40 nM.
As to `CNc1cc(-n2cc(C(=O)NCC(C)(C)O)c3ccccc32)nn2c(C(=O)NC3CC3)cnc12` [Example 1, N-cyclopropyl-6-(3-((2-hydroxy-2-methylpropyl)carbamoyl)-1H-indol-1-yl)-8-(methylamino)imidazo[1,2-b]pyridazine-3-carboxamide], the concentration for half-maximal inhibition (IC50) in assay [1] is 1320 nM; in assay [2], 2100 nM. The same compound returned an EC50 in assay [3] of 22 nM.
Consider `CNc1cc(-n2cc(C(=O)NC3CCOCC3)c3ccccc32)nn2c(C(=O)NC3CCC3)cnc12` [Example 11], for which the half-inhibitory concentration (IC50) in assay [1] was 689 nM; in assay [2], 1370 nM. This compound came in with an EC50 in assay [3] of 10 nM.
In the same order, the values of `CNc1cc(-n2cc(C(=O)Nc3ccccc3)c3ccccc32)nn2c(C(=O)NC3CC3)cnc12` [Example 5] are 4210 nM, 1960 nM and 25 nM.
